{"source": "patent US20090227563A1", "about": "“HERBICIDAL COMPOSITIONS HAVING IMPROVED EFFECT” (Bayer CropScience AG, priority 2005, published 2009)", "assay_in_all_cases": "Glasshouse trial on activity boost, post-emergence spraying, visual rating", "type_in_all_cases": "in vivo", "key": {"Setaria viridis (SETVI)": {"tested_on": "Setaria viridis (SETVI)", "method": "(§1) Seeds of monocot and dicot weeds and crop plants are sown in sandy loam soil in wood fibre pots or in plastic pots, and are covered with soil and cultivated under good growth conditions in the glasshouse and also, during the vegetation period, outdoors outside the glasshouse. 2-3 weeks after sowing, the trial plants are treated at the one- to three-leaf stage. The test compounds, formulated as wettable powders (WP) or liquids (EC), are applied by spraying to the plants and the soil surface in various doses, with a water application rate of 300 l/ha (converted) and with the addition of penetrants (0.2% to 0.4%) and where appropriate an ammonium salt. After the trial plants had stood in the glasshouse for about 3 to 4 weeks under optimum growth conditions, the activity of the products was rated visually in comparison to untreated controls (activity in %, i.e. 0%=no activity or as control, 100%=all plants died).\n(§2) For rapeseed oil methyl ester (RME) the following tables specify concentration in % a.i. by volume for ammonium sulphate (AMS) in g/l in the spray liquor.\n(§3) ALOMY=Alopecurus myosuroides AVEFA=Avena fatua LOLMU=Lolium multiflorum SETVI=Setaria viridis"}, "[1]": {"tested_on": "Lolium multiflorum (LOLMU)", "method": "as §1, §2\n(§4) ALOMY=Alopecurus myosuroides AVEFA=Avena fatua LOLMU=Lolium multiflorum LOLRI=Lolium rigidum\nas §3"}, "Avena fatua (AVEFA)": {"tested_on": "Avena fatua (AVEFA)", "method": "as §1, §2, §4, §3\n(§5) ALOMY=Alopecurus myosuroides AVEFA=Avena fatua LOLMU=Lolium multiflorum SETVI=Setaria viridis BROER=Bromus erectus"}, "[2]": {"tested_on": "Alopecurus myosuroides (ALOMY)", "method": "as §1, §2, §4, §3, §5"}, "[3]": {"settings": "25 g/ha, RME (0.25%) + AMS (3.3 g/l)"}, "[4]": {"settings": "50 g/ha, RME (0.25%) + AMS (3.3 g/l)"}, "[5]": {"settings": "12.5 g/ha, RME (0.25%) + AMS (3.3 g/l)"}, "[6]": {"settings": "50 g/ha, RME (0.25%) + AMS (0.33 g/l)"}, "[7]": {"settings": "50 g/ha, RME (0.25%) + AMS (1 g/l)"}}, "data": [{"smiles": "CCc1cc(Br)cc(C)c1C1=C(O)C2(CCC(OC)CC2)NC1=O", "note": "(centres unmarked) [I-1-a-1]", "values": [{"measurement": "Activity", "setting": "Setaria viridis (SETVI); 25 g/ha, RME (0.25%)", "result": 30, "unit": "%"}, {"measurement": "Activity", "setting": "Setaria viridis (SETVI); [3]", "result": 50, "unit": "%"}, {"measurement": "Activity", "setting": "Setaria viridis (SETVI); 50 g/ha, RME (0.25%)", "result": 40, "unit": "%"}, {"measurement": "Activity", "setting": "Setaria viridis (SETVI); [4]", "result": 50, "unit": "%"}]}, {"smiles": "CCc1cc(Br)cc(Cl)c1C1=C(O)C(C)(C2CC2)NC1=O", "note": "(centres unmarked) [I-1-a-2]", "values": [{"measurement": "Activity", "setting": "Setaria viridis (SETVI); 12.5 g/ha, RME (0.25%)", "result": 5, "unit": "%"}, {"measurement": "Activity", "setting": "Setaria viridis (SETVI); [5]", "result": 60, "unit": "%"}, {"measurement": "Activity", "setting": "Setaria viridis (SETVI); 25 g/ha, RME (0.25%)", "result": 20, "unit": "%"}, {"measurement": "Activity", "setting": "Setaria viridis (SETVI); [3]", "result": 90, "unit": "%"}, {"measurement": "Activity", "setting": "Setaria viridis (SETVI); 50 g/ha, RME (0.25%)", "result": 50, "unit": "%"}, {"measurement": "Activity", "setting": "Setaria viridis (SETVI); [4]", "result": 93, "unit": "%"}]}, {"smiles": "CCc1cc(C)cc(OC)c1C1=C(O)C2CCCN2C1=O", "note": "(centres unmarked) [I-1-a-3]", "values": [{"measurement": "Activity", "setting": "Setaria viridis (SETVI); 25 g/ha, RME (0.25%)", "result": 15, "unit": "%"}, {"measurement": "Activity", "setting": "Setaria viridis (SETVI); [3]", "result": 70, "unit": "%"}, {"measurement": "Activity", "setting": "Setaria viridis (SETVI); 50 g/ha, RME (0.25%)", "result": 93, "unit": "%"}, {"measurement": "Activity", "setting": "Setaria viridis (SETVI); [4]", "result": 95, "unit": "%"}, {"measurement": "Activity", "setting": "Setaria viridis (SETVI); 100 g/ha, RME (0.25%)", "result": 93, "unit": "%"}, {"measurement": "Activity", "setting": "Setaria viridis (SETVI); 100 g/ha, RME (0.25%) + AMS (3.3 g/l)", "result": 99, "unit": "%"}]}, {"smiles": "CCc1cccc(CC)c1C1=C(O)[C@]2(CC[C@H](OC)CC2)NC1=O", "note": "[I-1-a-4]", "values": [{"measurement": "Activity", "setting": "[1]; 25 g/ha, RME (0.25%)", "result": 2, "unit": "%"}, {"measurement": "Activity", "setting": "[1]; [3]", "result": 75, "unit": "%"}, {"measurement": "Activity", "setting": "[1]; 50 g/ha, RME (0.25%)", "result": 5, "unit": "%"}, {"measurement": "Activity", "setting": "[1]; [4]", "result": 90, "unit": "%"}, {"measurement": "Activity", "setting": "Avena fatua (AVEFA); 25 g/ha, RME (0.25%)", "result": 3, "unit": "%"}, {"measurement": "Activity", "setting": "Avena fatua (AVEFA); [3]", "result": 10, "unit": "%"}, {"measurement": "Activity", "setting": "Avena fatua (AVEFA); 50 g/ha, RME (0.25%)", "result": 5, "unit": "%"}, {"measurement": "Activity", "setting": "Avena fatua (AVEFA); [4]", "result": 30, "unit": "%"}, {"measurement": "Activity", "setting": "[2]; 25 g/ha, RME (0.25%)", "result": 3, "unit": "%"}, {"measurement": "Activity", "setting": "[2]; [3]", "result": 50, "unit": "%"}, {"measurement": "Activity", "setting": "[2]; 50 g/ha, RME (0.25%)", "result": 5, "unit": "%"}, {"measurement": "Activity", "setting": "[2]; [4]", "result": 70, "unit": "%"}]}, {"smiles": "CCCCO[C@@H]1CCC[C@]2(C1)NC(=O)C(c1c(C)cc(C)cc1C)=C2O", "note": "[I-1-a-5]", "values": [{"measurement": "Activity", "setting": "[1]; 50 g/ha, RME (0.25%)", "result": 5, "unit": "%"}, {"measurement": "Activity", "setting": "[1]; [6]", "result": 60, "unit": "%"}, {"measurement": "Activity", "setting": "[1]; [7]", "result": 93, "unit": "%"}, {"measurement": "Activity", "setting": "[1]; [4]", "result": 95, "unit": "%"}, {"measurement": "Activity", "setting": "[2]; 25 g/ha, RME (0.25%)", "result": 25, "unit": "%"}, {"measurement": "Activity", "setting": "[2]; 25 g/ha, RME (0.25%) + AMS (0.33 g/l)", "result": 50, "unit": "%"}, {"measurement": "Activity", "setting": "[2]; 25 g/ha, RME (0.25%) + AMS (1 g/l)", "result": 50, "unit": "%"}, {"measurement": "Activity", "setting": "[2]; [3]", "result": 60, "unit": "%"}]}, {"smiles": "CCc1cc(C)cc(Br)c1C1=C(O)C(C)(C)NC1=O", "note": "[I-1-a-6]", "values": [{"measurement": "Activity", "setting": "[1]; 50 g/ha, RME (0.25%)", "result": 5, "unit": "%"}, {"measurement": "Activity", "setting": "[1]; [6]", "result": 20, "unit": "%"}, {"measurement": "Activity", "setting": "[1]; [7]", "result": 50, "unit": "%"}, {"measurement": "Activity", "setting": "[1]; [4]", "result": 65, "unit": "%"}, {"measurement": "Activity", "setting": "Setaria viridis (SETVI); 12.5 g/ha, RME (0.25%)", "result": 50, "unit": "%"}, {"measurement": "Activity", "setting": "Setaria viridis (SETVI); 12.5 g/ha, RME (0.25%) + AMS (0.33 g/l)", "result": 65, "unit": "%"}, {"measurement": "Activity", "setting": "Setaria viridis (SETVI); 12.5 g/ha, RME (0.25%) + AMS (1 g/l)", "result": 75, "unit": "%"}, {"measurement": "Activity", "setting": "Setaria viridis (SETVI); [5]", "result": 90, "unit": "%"}]}, {"smiles": "CCc1cc(Cl)ccc1C1=C(OC(=O)C(C)C)C2(CCC(C)CC2)NC1=O", "note": "(centres unmarked) [I-1-b-1]", "values": [{"measurement": "Activity", "setting": "[1]; 25 g/ha, RME (0.25%)", "result": 10, "unit": "%"}, {"measurement": "Activity", "setting": "[1]; [3]", "result": 25, "unit": "%"}, {"measurement": "Activity", "setting": "[1]; 50 g/ha, RME (0.25%)", "result": 10, "unit": "%"}, {"measurement": "Activity", "setting": "[1]; [4]", "result": 75, "unit": "%"}, {"measurement": "Activity", "setting": "Avena fatua (AVEFA); 25 g/ha, RME (0.25%)", "result": 15, "unit": "%"}, {"measurement": "Activity", "setting": "Avena fatua (AVEFA); [3]", "result": 60, "unit": "%"}, {"measurement": "Activity", "setting": "Avena fatua (AVEFA); 50 g/ha, RME (0.25%)", "result": 50, "unit": "%"}, {"measurement": "Activity", "setting": "Avena fatua (AVEFA); [4]", "result": 60, "unit": "%"}, {"measurement": "Activity", "setting": "[2]; 25 g/ha, RME (0.25%)", "result": 5, "unit": "%"}, {"measurement": "Activity", "setting": "[2]; [3]", "result": 25, "unit": "%"}, {"measurement": "Activity", "setting": "[2]; 50 g/ha, RME (0.25%)", "result": 20, "unit": "%"}, {"measurement": "Activity", "setting": "[2]; [4]", "result": 75, "unit": "%"}]}]}
